The text below walks through data of publication PMC11968394, “The effect of deuterated PLK1 inhibitor on its safety and efficacy in vivo” (Frontiers in Oncology, 2025).

Structures are written as SMILES. Read-outs that look alike come from different tables or passages of the source.

This data set can be described thus: Caco-2 permeability assay. The data set is classed as in vitro ADME. The settings on record: human; for Papp A→B at 2 h, 5 μM / Papp B→A at 2 h, 5 μM: Caco-2, 5 μM. Here is the method:
Caco-2 cells were cultured in 10% FBS DMEM for 14-21 days before assays. […] HBSS was added to the opposite chamber. After 2 hours incubation at 37°C, samples were analyzed by LC-MS/MS. Fluorescein leakage was tested by adding 100 μM fluorescein to the upper chamber and measuring fluorescence after 30 minutes.
On the technique in general: Caco-2 monolayers are a common model of the intestinal barrier.

Setting [1] is: Caco-2, Caco-2, B-A, read-out: Recovery B-A%.

On to `C[C@H]1O[C@@H](O[C@H]2[C@@H](O)C[C@H](O[C@H]3[C@@H](O)C[C@H](O[C@H]4CC[C@@]5(C)[C@H](CC[C@@H]6[C@@H]5C[C@@H](O)[C@]5(C)[C@@H](C7=CC(=O)OC7)CC[C@]65O)C4)O[C@@H]3C)O[C@@H]2C)C[C@H](O)[C@@H]1O` [Digoxin], for which the Papp A→B – broadly, the apparent permeability from the apical to the basolateral side of a cell layer – at 2 h, 5 μM is 0.9 ×10⁻⁶ cm/s and the Papp B→A (commonly how fast a substance crosses the layer from the basolateral side) at 2 h, 5 μM was determined as 26.1 ×10⁻⁶ cm/s. The recovery at 2 h, 5 μM (Caco-2, Caco-2, A-B, read-out: Recovery A-B%) stood at 78.5%. For the same compound, the recovery at 2 h, 5 μM under setting [1] is 101%.

For the compound `CC(C)NCC(O)COc1cccc2ccccc12` (stereo not shown) [Propraolol, Propranolol], the Papp A→B at 2 h, 5 μM stood at 22.3 ×10⁻⁶ cm/s and the Papp B→A at 2 h, 5 μM came to 14.7 ×10⁻⁶ cm/s. For the same compound, the recovery at 2 h, 5 μM under setting [1] was 84.9%.
